Eleven molecules from PMC10457369, “Novel VEGFR2 inhibitors with thiazoloquinoxaline scaffold targeting hepatocellular carcinoma with lower cardiotoxic impact” (Scientific Reports, 2023) can be followed below.

The target in one data set is T1, VEGFR-2 (Homo sapiens, UniProt P35968).
T1 construct: purchased BPS Bioscience 40325
Kind of data set: In-vitro VEGFR-2 kinase assay (BPS Bioscience kit, Kinase-Glo MAX). Format: biochemical. As to conditions: mean ± S.D of three experiments. The protocol: The VEGFR-2 Kinase Assay Kit [Catalog no., 40325, BPS Bioscience®, USA] is designed to measure VEGFR-2 kinase activity for screening and profiling applications using Kinase-Glo® MAX as a detection reagent. The VEGFR-2 Kinase Assay Kit comes in a convenient 96-well format, with enough purified recombinant VEGFR2 enzyme and VEGFR2 substrate. The assay protocol was carried out according to manufacturer instructions.
Background: In Kinase-Glo more light means more ATP remaining.

In a further data set the test system is HepG2 cells. The experiment in a line: HepG2 cell viability, SRB assay. Format: cell-based. As to conditions: Homo sapiens. The protocol:
(§1) Hepatocellular carcinoma (HepG2) and rat heart/myocardium (H9C2) were obtained from Nawah Scientific Inc., (Mokattam, Cairo, Egypt). Cells were maintained in DMEM media supplemented with […] of streptomycin (3810–74-0), 100 units/mL of penicillin (113–98-4) and 10% of heat-inactivated fetal bovine serum in humidified, 5% (v/v) CO2 atmosphere at 37 °C.
(§2) Cell viability was assessed by SRB assay,[67]. Aliquots of 100 μL cell suspension (5 × 10^3 cells) were in 96-well plates and incubated in complete media for 24 h. […] After 72 h of drug exposure, cells were fixed by replacing media with 150 μL of 10% TCA (76–03-9) and incubated at 4 °C for 1 h. The TCA solution was removed, and the cells were washed 5 times with distilled water. Aliquots of 70 μL SRB (3520–42-1) solution (0.4% w/v) were added and incubated in a dark place at room temperature for 10 min. Plates were washed 3 times with 1% acetic acid (64–19-7) and allowed to air-dry overnight. Then, 150 μL of TRIS (77–86-1) (10 mM) was added to dissolve protein-bound SRB stain; the absorbance was measured at 540 nm using a BMG LABTECH®- FLUOstar Omegammicroplate reader (Ortenberg, Germany).
(Sulforhodamine B stains cellular protein and so reports cell mass.)

The next data set relates to H9C2 cells. Kind of data set: H9C2 cardiomyocyte viability, SRB assay. As to conditions: for IC50: 72 h, SRB. Format: cell-based, rat. As for the experimental part:
as §1, §2

The subject of a further data set is mice. The settings on record: male, Swiss albino, mouse, in vivo, po, 14 days. The protocol:
For the study of the compound 4d's oral toxicity, 30 male Swiss albino mice were used. They were randomly allocated into 5 groups; the first group of mice (n = 6) received a vehicle and was used as control, while the other four groups, each received a different acute dose of compound 4d dissolved in 0.05% Tween 80 (9005–65-6) (200, 500, 800, and 1000 mg/kg p.o.). Up to 14 days after treatment, clinical toxicity symptoms (death, more than 20% weight loss, diarrhea, lethargy, tremors, and convulsions) were noted.

The subject of data set [1] is heart creatine kinase (CK). Kind of data set: Heart creatine kinase (CK) ELISA in 8 Gy irradiated mice. It is filed as in vivo. As to conditions: 50 mg/kg p.o., 3 days. As for the experimental part: (§3) Whole body γ-irradiation of mice was performed at the NCRRT using the Gamma Cell-40 biological irradiator with a Cesium-137 irradiator unit, produced by the atomic energy of Canada limited (Sheridan science and technology park, Mississauga, Ontario, Canada). Mice were exposed to an acute dose of 8 Gy according to Yoo et al..
(§4) A total 32 mice were randomly allocated into 4 groups as follows: 1- control normal [Control] mice received vehicle (10% DMSO). 2- Irradiated mice (8 Gy) received vehicle [IRR]. […] 4- Irradiated mice treated with Compound 4d (50 mg/ kg body wt./ p.o) for 3 successive days, [IRR + cmp 4d]. After 3 days, all animals were anesthetized with ketamine (80 mg/ kg), blood samples were collected via retro-orbital plexus, and then serum samples were separated after centrifugation. Heart and liver samples were dissected and rapidly washed with cool saline then heart samples were stored at -80 °C till assay time. One lobe of liver was embedded in 10% formalin for immunohistochemistry assay.
Heart tissues of mice were weighted and minced then homogenized in cold fresh lysis buffer, the homogenate was centrifuged for 5 min at 4000 rpm, and then the supernatant was used for assay. Cardiac contents of CK, TNF-α and Caspase-9 were measured according to manufacturer instructions using CK ELISA kit [catalog no. EK730963, AFG Bioscience®, USA], TNF-α ELISA kit [catalog no. SEA626Ra, Cloud-Clone Corp®, USA] and Caspase-9 ELISA kit [catalog no. E-EL-R02054, Elabsciense®, USA], respectively.
A general note: In an ELISA, binding on a coated surface is turned into a signal by an enzyme label.

Data set [2] relates to serum lactate dehydrogenase (LDH). Kind of data set: Serum LDH in 8 Gy irradiated mice. It is filed as in vivo. The settings on record: 50 mg/kg p.o., 3 days. As for the experimental part:
as §3, §4
Serum LDH was estimated kinetically using Spectrum® coloring assay Kit [Egyptian company for biotechnology, SAE®, Egypt]. It was carried according to manufacturer's instructions; the values were expressed as IU/ml.

A further data set has as its system serum catalase. The experiment in a line: Serum catalase activity in 8 Gy irradiated mice. Format: in vivo. As to conditions: 50 mg/kg p.o., 3 days. The protocol: as §3, §4
Serum catalase was assessed colorimetrically in all groups according to manufacturer instructions using coloring endpoint kit [Biodiagnostic co.®, Egypt].

Another data set relates to cardiac TNF-α. Kind of data set: Cardiac TNF-α ELISA in 8 Gy irradiated mice. As to conditions: in comparison to control irradiated group, 50 mg/kg p.o., 3 days. Format: in vivo. The protocol:
as §3, §4
(§5) Heart tissues of mice were weighted and minced then homogenized in cold fresh lysis buffer, the homogenate was centrifuged for 5 min at 4000 rpm, and then the supernatant was used for assay. Cardiac contents of CK, TNF-α and Caspase-9 were measured according to manufacturer instructions using CK ELISA kit [catalog no. EK730963, AFG Bioscience®, USA], TNF-α ELISA kit [catalog no. […]

For another data set, the system named is cardiac caspase-9. The experiment in a line: Cardiac caspase-9 ELISA in 8 Gy irradiated mice. It is filed as in vivo. The settings on record: 50 mg/kg p.o., 3 days. The protocol: as §3, §4, §5
A further data set relates to hepatic VEGF. Kind of data set: Immunohistochemistry expression of VEGF in liver tissue of irradiated mice. Format: in vivo. The settings on record: 50 mg/kg p.o., 3 days, 8 Gy irradiated mice, vs irradiated animals. As for the experimental part: as §3, §4
Immunohistochemical study was carried out on paraffin tissue sections prepared for the detection VEGF, liver tissue sections were incubated separately with anti- VEGF (Gene Tex, USA). The expression of each marker was visualized by the chromogen 3,3-diaminobenzidine tetrahydrochloridem (DAB, Sigma Chemical Co.).

[3] abbreviates: 72 h, SRB, read-out: HepG2 IC50.

Each structure is given as a SMILES string. Like-named read-outs stand apart in the source and are kept apart here.

T1 sequence (P35968 20-1356): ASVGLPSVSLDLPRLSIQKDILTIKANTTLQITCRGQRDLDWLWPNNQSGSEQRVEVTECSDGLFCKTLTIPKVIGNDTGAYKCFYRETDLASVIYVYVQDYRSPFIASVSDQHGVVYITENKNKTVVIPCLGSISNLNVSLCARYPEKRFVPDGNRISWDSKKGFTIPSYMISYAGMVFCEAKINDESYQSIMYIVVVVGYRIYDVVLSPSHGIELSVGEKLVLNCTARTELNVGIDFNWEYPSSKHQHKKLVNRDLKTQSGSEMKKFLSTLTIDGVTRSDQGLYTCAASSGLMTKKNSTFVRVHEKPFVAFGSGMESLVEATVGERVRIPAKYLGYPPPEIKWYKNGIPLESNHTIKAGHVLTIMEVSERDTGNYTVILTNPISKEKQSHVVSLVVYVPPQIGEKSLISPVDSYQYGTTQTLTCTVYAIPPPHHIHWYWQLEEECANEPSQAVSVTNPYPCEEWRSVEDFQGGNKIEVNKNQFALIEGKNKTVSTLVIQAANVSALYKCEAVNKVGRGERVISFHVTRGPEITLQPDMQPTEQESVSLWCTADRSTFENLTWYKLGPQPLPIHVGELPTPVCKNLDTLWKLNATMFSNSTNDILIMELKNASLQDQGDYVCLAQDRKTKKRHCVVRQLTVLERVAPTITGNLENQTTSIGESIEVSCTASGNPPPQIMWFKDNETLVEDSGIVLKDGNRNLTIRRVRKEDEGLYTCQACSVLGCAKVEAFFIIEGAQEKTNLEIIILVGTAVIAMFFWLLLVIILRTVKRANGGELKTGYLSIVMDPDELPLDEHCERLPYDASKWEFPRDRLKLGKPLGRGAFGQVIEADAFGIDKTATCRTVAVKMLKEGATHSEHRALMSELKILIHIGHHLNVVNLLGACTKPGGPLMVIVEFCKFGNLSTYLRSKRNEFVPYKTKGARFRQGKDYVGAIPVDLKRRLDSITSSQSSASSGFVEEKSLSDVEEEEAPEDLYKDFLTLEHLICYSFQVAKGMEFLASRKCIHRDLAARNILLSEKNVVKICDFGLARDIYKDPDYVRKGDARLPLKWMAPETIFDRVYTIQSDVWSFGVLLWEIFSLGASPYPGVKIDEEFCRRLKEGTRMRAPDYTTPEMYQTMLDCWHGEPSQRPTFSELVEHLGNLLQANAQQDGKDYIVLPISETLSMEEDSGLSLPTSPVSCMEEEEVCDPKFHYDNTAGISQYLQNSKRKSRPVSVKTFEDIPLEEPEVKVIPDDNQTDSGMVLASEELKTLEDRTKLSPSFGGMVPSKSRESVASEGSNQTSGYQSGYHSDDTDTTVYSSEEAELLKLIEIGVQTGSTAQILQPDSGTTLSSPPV

Usually melting point stands for the temperature of the solid-liquid transition. In the case of `N=C(N)NS(=O)(=O)c1ccc(N=c2[nH]c3nc4ccccc4nc3s2)cc1` [Compound 4c, N-Carbamimidoyl-4-(thiazolo[4,5-b]quinoxalin-2(3H)-ylideneamino) benzene-esulfonamide], the melting point was more than 260 °C. In addition, the IC50 against VEGFR-2 was determined as 254 ± 11 nM.

The viability is the share of living cells, or the viability signal relative to a control. High values mean less harm to the cells, low ones more harm to the cells. The molecule `O=S(=O)(Nc1ccccn1)c1ccc(N=c2[nH]c3nc4ccccc4nc3s2)cc1` [Compound 4d, N-(pyridin-2-yl)-4-(thiazolo[4,5-b]quinoxalin-2(3H)-ylideneamino) benzene-sulfonamide] showed an IC50 against VEGFR-2 of 61 ± 2.6 nM. In the data set with HepG2 cells (72 h, SRB), this molecule came in with a viability at 0.01 µM of 98.55 ± 0.47%, a viability at 0.1 µM of 98.32 ± 0.97%, a viability at 1 µM of 98.1 ± 1.8% and a viability at 10 µM of 6.62 ± 0.5%. Besides, in the data set with HepG2 cells (72 h, SRB), the viability at 100 µM came to 3.81 ± 0.24%. In the data set on HepG2 cells (setting [3]), the IC50 amounted to 4310 nM. The IC50 in the data set with HepG2 cells (read-out: suppressing potency on HepG2 cells proliferation) amounted to 4310 nM. Moreover, in the data set on H9C2 cells (H9C2 cardiomyocytes), the “times less cytotoxic than sorafenib” value is reported as 2.93 times. Further, the “high level of safety up to” value with mice is listed as “up to 1000 mg/kg”. In data set [1], the “CK activity compared to normal values” is “not significantly different from normal values” and the “CK level compared to IRR non-treated group” value is given as “did not significantly lower CK level”. The “serum LDH compared to normal values” in data set [2] is reported as “non-significant deviation from normal LDH values”. Further, the “decrease in serum LDH” value in [2] (compared to sorafenib treated group) is given as 40.83%. Moreover, the serum catalase activity result with serum catalase was “normal catalase activity”. In the data set with cardiac TNF-α, the “reduction in cardiac TNF-α” value is given as 35.75%. In addition, the “decrease in Caspase-9” value in the data set with cardiac caspase-9 (compared to control irradiated animals) is reported as 20.63%. Also, the “expression of VEGF in liver tissue” value with hepatic VEGF is recorded as “promisingly suppressed”.

With `O=S(=O)(Nc1nccs1)c1ccc(N=c2[nH]c3nc4ccccc4nc3s2)cc1` [Compound 4g, N-(Thiazol-2-yl)-4-(thiazolo[4,5-b]quinoxalin-2(3H)-ylideneamino) benzene-sulfonamide], the melting point lay within 238 to 240 °C. Also, the IC50 against VEGFR-2 is 99.8 ± 4.3 nM.

Molecule `CC(=O)NS(=O)(=O)c1ccc(N=c2[nH]c3nc4ccccc4nc3s2)cc1` [Compound 4b, N-((4-(Thiazolo[4,5-b]quinoxalin-2(3H)ylideneamino)phenyl)sulfonyl)-acetamide] displayed a melting point of 245 to 247 °C. Moreover, at VEGFR-2, the IC50 was determined as 132 ± 5.7 nM.

`Cc1ccnc(NS(=O)(=O)c2ccc(N=c3[nH]c4nc5ccccc5nc4s3)cc2)n1` [Compound 4h, N-(4-Methylpyrimidin-2-yl)-4-(thiazolo[4,5-b]quinoxalin-2(3H)-ylideneamino)-benzenesulfonamide] had a melting point of 199 to 201 °C. The same molecule showed an IC50 at VEGFR-2 of 217 ± 9.4 nM.

In the case of `O=S(=O)(Nc1ncccn1)c1ccc(N=c2[nH]c3nc4ccccc4nc3s2)cc1` [Compound 4e, N-(Pyrimidin-2-yl)-4-(thiazolo[4,5-b]quinoxalin-2(3H)-ylideneamino) benzene-sulfonamide], the melting point was in the range of 223 to 225 °C. The same molecule gave an IC50 against VEGFR-2 of 112 ± 4.8 nM.

Regarding `NS(=O)(=O)c1ccc(N=c2[nH]c3nc4ccccc4nc3s2)cc1` [Compound 4a, 4-(Thiazolo[4,5-b]quinoxalin-2(3H)-ylideneamino)benzenesulfonamide], the melting point lay in the range of 165 to 167 °C. This molecule showed an IC50 on VEGFR-2 of 169 ± 7.4 nM.

The molecule `Cc1cc(C)nc(NS(=O)(=O)c2ccc(N=c3[nH]c4nc5ccccc5nc4s3)cc2)n1` [Compound 4i, N-(4,6-Dimethylpyrimidin-2-yl)-4-(thiazolo[4,5-b]quinoxalin-2(3H)-ylideneamino) benzenesulfonamide] yielded a melting point of 246 to 248 °C. At VEGFR-2, this molecule registered an IC50 of 288 ± 13 nM.

`COc1cc(NS(=O)(=O)c2ccc(N=c3[nH]c4nc5ccccc5nc4s3)cc2)nc(OC)n1` [Compound 4j, N-(2,6-Dimethoxypyrimidin-4-yl)-4-(thiazolo[4,5-b]quinoxalin-2(3H)-ylidene-amino)-benzenesulfonamide]: the melting point lay in the range of 249 to 251 °C. This molecule came in with an IC50 at VEGFR-2 of 368 ± 16 nM.

In turn, `Cc1cc(NS(=O)(=O)c2ccc(N=c3[nH]c4nc5ccccc5nc4s3)cc2)no1` [Compound 4f, N-(5-Methylisoxazol-3-yl)-4-(thiazolo[4,5-b]quinoxalin-2(3H)-ylideneamino) benzene-sulfonamide] registered a melting point of 186 to 188 °C. The molecule further returned an IC50 at VEGFR-2 of 83.3 ± 3.7 nM. Further, in the data set with HepG2 cells (72 h, SRB), the viability at 0.01 µM is 97.6 ± 1.26%, the viability at 0.1 µM turned out to be 97.1 ± 1.06%, the viability at 1 µM was determined as 96.6 ± 1.2% and the viability at 10 µM is 95.5 ± 3%. Also, the viability at 100 µM in the data set with HepG2 cells (72 h, SRB) was 94 ± 2.03%. In addition, the IC50 in the data set with HepG2 cells (setting [3]) is more than 100000 nM.

As to `CNC(=O)c1cc(Oc2ccc(NC(=O)Nc3ccc(Cl)c(C(F)(F)F)c3)cc2)ccn1` [Sorafenib, reference compound], in the data set with HepG2 cells (72 h, SRB), the viability at 0.01 µM amounted to 99.58 ± 0.94%, the viability at 0.1 µM stood at 98.2 ± 3.19%, the viability at 1 µM amounted to 87.1 ± 2.02% and the viability at 10 µM worked out at 11.3 ± 0.31%. In addition, in the data set on HepG2 cells (72 h, SRB), the viability at 100 µM came out at 4.05 ± 0.1%. For the same molecule, the IC50 in the data set on HepG2 cells (setting [3]) was 2970 nM. Further, the IC50 with H9C2 cells came out at 33500 nM. In the data set with H9C2 cells (listed as sorafenib), this molecule came in with an IC50 of 98100 nM. Besides, in data set [1] (vs normal), the “increment in CK enzymatic activity” value was 35.88%. The “increase in serum LDH” value in [2] (vs normal) came out at 106.06%. Besides, in the data set on serum catalase (vs normal), the “decrease in serum catalase activity” value is 6.19%. Besides, the “reduction in cardiac TNF-α” value with cardiac TNF-α worked out at 31.87%. Moreover, in the data set with cardiac caspase-9 (over normal values), the “increase in cardiac caspase-9 levels” value is 29.83%. In addition, the “expression of VEGF in liver tissue” value in the data set on hepatic VEGF is reported as “promisingly suppressed”.
